In ChEMBL document CHEMBL4622960, “Design, synthesis and biological activity of novel substituted 3-benzoic acid derivatives as MtDHFR inhibitors” (Bioorg Med Chem, 2020):
Active and inactive are the calls of the source. The calls are words filed in the database; no cut-off is given here.

Tests used:
Dihydrofolate reductase = biological target: T1, Dihydrofolate reductase (Mycobacterium tuberculosis, UniProt P9WNX1); experiment: Inhibition of recombinant Mycobacterium tuberculosis DHFR expressed in Escherichia coli BL21(DE3) cells using DHF as substrate and NADPH as cofactor by fluorimetric analysis
T1 sequence (P9WNX1 whole entry): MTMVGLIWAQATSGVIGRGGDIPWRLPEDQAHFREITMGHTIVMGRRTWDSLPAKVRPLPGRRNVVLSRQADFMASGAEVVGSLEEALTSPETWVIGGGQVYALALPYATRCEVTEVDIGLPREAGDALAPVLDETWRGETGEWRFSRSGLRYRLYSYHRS

[1] = biological target: T2, Dihydrofolate reductase (Mycobacterium tuberculosis) (UniProt P9WNX1); experiment: Potency index, ratio of MB872 IC50 to test compound IC50 for recombinant Mycobacterium tuberculosis DHFR expressed in Escherichia coli BL21(DE3) cells using DHF as substrate and NADPH as cofactor by fluorimetric analysis
T2 sequence (whole entry): T1 sequence (P9WNX1 whole entry)

[2] = biological target: T2, Dihydrofolate reductase (Mycobacterium tuberculosis); experiment: Uncompetitive inhibition of Mycobacterium tuberculosis DHFR assessed as constant Km using DHF as substrate and NADPH as cofactor by Michaelis-Menten analysis
[3] = biological target: T2, Dihydrofolate reductase (Mycobacterium tuberculosis); experiment: Uncompetitive inhibition of Mycobacterium tuberculosis DHFR assessed as varying Vmax using DHF as substrate and NADPH as cofactor by Michaelis-Menten analysis
[4] = biological target: T2, Dihydrofolate reductase (Mycobacterium tuberculosis); experiment: Potency index, ratio of trimethoprim IC50 to test compound IC50 for recombinant Mycobacterium tuberculosis DHFR expressed in Escherichia coli BL21(DE3) cells using DHF as substrate and NADPH as cofactor by fluorimetric analysis

| Compound | IC50 (Dihydrofolate reductase) [µM] | Ratio IC50 [1] | other results |
| --- | --- | --- | --- |
| O=C(O)c1ccc(COc2ccccc2)cc1 | 442 | – | – |
| COC(=O)c1cccc(COc2ccc([N+](=O)[O-])cc2)c1 | 35 | 13 to 21 | – |
| COC(=O)c1ccc(COc2ccccc2)cc1 | 152 | – | – |
| COc1ccc(OCc2ccc(C(=O)O)cc2)cc1 | 31 | 19 | – |
| O=C(O)c1cccc(-n2cc(COc3ccccc3)nn2)c1 | > 500 | – | – |
| O=C(O)c1cccc(CNc2ccccc2)c1 | 7 | 71 | inhibition [2]: Active; inhibition [3]: Active; Ratio IC50 [4]: 13 |
| O=C(O)c1cccc(COc2ccc(O)cc2)c1 | 36 | 13 to 21 | – |
| COC(=O)c1cccc(COc2ccc(OC)cc2)c1 | 242 | – | – |
| O=C(O)c1cccc(COc2ccccc2)c1 | ≥ 500 | – | – |
| COC(=O)c1cccc(COc2ccccc2)c1 | > 500 | – | – |
| COC(=O)c1cccc(OCc2ccccc2)c1 | > 500 | – | – |
| c1ccc(OCc2cccc(-c3nnn[nH]3)c2)cc1 | 454 | – | – |
| O=C(O)c1cccc(CSc2ccccc2)c1 | 128 | – | – |
| COC(=O)c1ccc(COc2ccc(OC)cc2)cc1 | 26 | 16 | – |
| COC(=O)c1cccc(-n2cc(COc3ccccc3)nn2)c1 | 81 | – | – |
| COc1ccc(OCc2cccc(C(=O)O)c2)cc1 | 119 | – | – |
| O=C(O)c1cccc(OCc2ccccc2)c1 | 230 | – | – |
| O=C(O)c1cccc(COc2ccc([N+](=O)[O-])cc2)c1 | 23 | 13 to 21 | – |
| COC(=O)c1cccc(CSc2ccccc2)c1 | 76 | – | – |
